# Data taken from US20220281848A1, “PYRAZOLE-SUBSTITUTED PYRROLIDINONES AS HERBICIDES” (FMC Corporation, priority 2019, published 2022).
# Tested on: plants
# Test: Test D pre-emergence, other plants of Tables D1 and D3
# Assay type: in vivo
# Conditions: for damage to plant (100=total damage to plant; 0=no damage to plant), SORVU: preemergent, 20 DAA; for damage to plant, ALOMY / damage to plant, AVEFA / damage to plant, BEAVA / damage to plant, BROTE / damage to plant, BRSNN / damage to plant, CHEAL / damage to plant, GALAP / damage to plant, HORVW / damage to plant, KCHSC / damage to plant, LOLPE / damage to plant, POAAN / damage to plant, POLCO / damage to plant, SINAR / damage to plant, STEME / damage to plant, VERPE: pre-emergence, 100=total damage, 0=no damage
# Description: A formulation containing 50 g/L of the test chemical was prepared by dissolving the active ingredient in a mixture of organic solvents and emulsifier, details of which are provided in the table. This formulation was then mixed with a small, variable amount of acetone to aid dissolution, before addition of a 0.2% v/v aqueous solution of an adjuvant, as the aqueous diluent, to form an aqueous spray solution which contains a predetermined concentration of the active ingredient.
# This aqueous spray solution was then sprayed onto plants including maize and wheat that had been seed treated with a herbicide safener, after one day's cultivation (for pre-emergence) or after about 12 days' cultivation (for post-emergence). The plants were grown from seeds sown in standard soil, placed in a glasshouse under controlled conditions (at 24/18° C. or 20/16° C., day/night; 16 h light; 65% humidity). After spray application the plants were then grown in a glasshouse under the same conditions and watered twice daily. After 15 d for post-emergence and 20 DAA for pre-emergence the test was evaluated (100=total damage to plant; 0=no damage to plant).
smiles,measurement,setting,value
CCn1nc([C@H]2CN(C)C(=O)[C@@H]2C(=O)Nc2cccc(F)c2F)c2cc(F)ccc21 [Compound 8],"damage to plant (100=total damage to plant; 0=no damage to plant), SORVU",rate 250,20
same,"damage to plant (100=total damage to plant; 0=no damage to plant), SORVU",rate 500,30
same,"damage to plant, ALOMY","rate 15, 20 DAA",0
same,"damage to plant, AVEFA","rate 15, 20 DAA",0
same,"damage to plant, BEAVA","rate 15, 20 DAA",0
same,"damage to plant, BROTE","rate 15, 20 DAA",0
same,"damage to plant, BRSNN","rate 15, 20 DAA",0
same,"damage to plant, CHEAL","rate 15, 20 DAA",0
same,"damage to plant, GALAP","rate 15, 20 DAA",0
same,"damage to plant, HORVW","rate 15, 20 DAA",0
same,"damage to plant, KCHSC","rate 15, 20 DAA",0
same,"damage to plant, LOLPE","rate 15, 20 DAA",0
same,"damage to plant, POAAN","rate 15, 20 DAA",0
same,"damage to plant, POLCO","rate 15, 20 DAA",0
same,"damage to plant, SINAR","rate 15, 20 DAA",0
same,"damage to plant, STEME","rate 15, 20 DAA",0
same,"damage to plant, VERPE","rate 15, 20 DAA",0
same,"damage to plant, ALOMY","rate 30, 20 DAA",0
same,"damage to plant, AVEFA","rate 30, 20 DAA",0
same,"damage to plant, BEAVA","rate 30, 20 DAA",0
same,"damage to plant, BROTE","rate 30, 20 DAA",0
same,"damage to plant, BRSNN","rate 30, 20 DAA",0
same,"damage to plant, CHEAL","rate 30, 20 DAA",0
same,"damage to plant, GALAP","rate 30, 20 DAA",0
same,"damage to plant, HORVW","rate 30, 20 DAA",0
same,"damage to plant, KCHSC","rate 30, 20 DAA",0
same,"damage to plant, LOLPE","rate 30, 20 DAA",0
same,"damage to plant, POAAN","rate 30, 20 DAA",0
same,"damage to plant, POLCO","rate 30, 20 DAA",0
same,"damage to plant, SINAR","rate 30, 20 DAA",0
same,"damage to plant, STEME","rate 30, 20 DAA",0
same,"damage to plant, VERPE","rate 30, 20 DAA",0
same,"damage to plant, ALOMY","rate 60, 20 DAA",0
same,"damage to plant, AVEFA","rate 60, 20 DAA",0
same,"damage to plant, BEAVA","rate 60, 20 DAA",0
same,"damage to plant, BROTE","rate 60, 20 DAA",0
same,"damage to plant, BRSNN","rate 60, 20 DAA",0
same,"damage to plant, CHEAL","rate 60, 20 DAA",0
same,"damage to plant, GALAP","rate 60, 20 DAA",0
same,"damage to plant, HORVW","rate 60, 20 DAA",0
same,"damage to plant, KCHSC","rate 60, 20 DAA",0
same,"damage to plant, LOLPE","rate 60, 20 DAA",0
same,"damage to plant, POAAN","rate 60, 20 DAA",0
same,"damage to plant, POLCO","rate 60, 20 DAA",0
same,"damage to plant, SINAR","rate 60, 20 DAA",0
same,"damage to plant, STEME","rate 60, 20 DAA",0
same,"damage to plant, VERPE","rate 60, 20 DAA",0
same,"damage to plant, ALOMY","rate 130, 20 DAA",0
same,"damage to plant, AVEFA","rate 130, 20 DAA",0
same,"damage to plant, BEAVA","rate 130, 20 DAA",0
same,"damage to plant, BROTE","rate 130, 20 DAA",0
same,"damage to plant, BRSNN","rate 130, 20 DAA",0
same,"damage to plant, CHEAL","rate 130, 20 DAA",0
same,"damage to plant, GALAP","rate 130, 20 DAA",0
same,"damage to plant, HORVW","rate 130, 20 DAA",0
same,"damage to plant, KCHSC","rate 130, 20 DAA",0
same,"damage to plant, LOLPE","rate 130, 20 DAA",0
same,"damage to plant, POAAN","rate 130, 20 DAA",0
same,"damage to plant, POLCO","rate 130, 20 DAA",0
same,"damage to plant, SINAR","rate 130, 20 DAA",0
same,"damage to plant, STEME","rate 130, 20 DAA",0
same,"damage to plant, VERPE","rate 130, 20 DAA",0
same,"damage to plant, ALOMY","rate 250, 20 DAA",0
same,"damage to plant, AVEFA","rate 250, 20 DAA",0
same,"damage to plant, BEAVA","rate 250, 20 DAA",0
same,"damage to plant, BROTE","rate 250, 20 DAA",0
same,"damage to plant, BRSNN","rate 250, 20 DAA",0
same,"damage to plant, CHEAL","rate 250, 20 DAA",0
same,"damage to plant, GALAP","rate 250, 20 DAA",0
same,"damage to plant, HORVW","rate 250, 20 DAA",0
same,"damage to plant, KCHSC","rate 250, 20 DAA",0
same,"damage to plant, LOLPE","rate 250, 20 DAA",0
same,"damage to plant, POAAN","rate 250, 20 DAA",0
same,"damage to plant, POLCO","rate 250, 20 DAA",0
same,"damage to plant, SINAR","rate 250, 20 DAA",0
same,"damage to plant, STEME","rate 250, 20 DAA",0
same,"damage to plant, VERPE","rate 250, 20 DAA",0
same,"damage to plant, ALOMY","rate 500, 20 DAA",10
same,"damage to plant, AVEFA","rate 500, 20 DAA",10
same,"damage to plant, BEAVA","rate 500, 20 DAA",0
same,"damage to plant, BROTE","rate 500, 20 DAA",0
same,"damage to plant, BRSNN","rate 500, 20 DAA",10
same,"damage to plant, CHEAL","rate 500, 20 DAA",0
same,"damage to plant, GALAP","rate 500, 20 DAA",0
same,"damage to plant, HORVW","rate 500, 20 DAA",10
same,"damage to plant, KCHSC","rate 500, 20 DAA",0
same,"damage to plant, LOLPE","rate 500, 20 DAA",0
same,"damage to plant, POAAN","rate 500, 20 DAA",60
same,"damage to plant, POLCO","rate 500, 20 DAA",0
same,"damage to plant, SINAR","rate 500, 20 DAA",0
same,"damage to plant, STEME","rate 500, 20 DAA",0
same,"damage to plant, VERPE","rate 500, 20 DAA",0
